The results in this text go back to patent US20210238192A1, “VASCULAR ADHESION PROTEIN-1 (VAP-1) MODULATORS AND THERAPEUTIC USES THEREOF” (Blade Therapeutics, Inc., priority 2018, published 2021).

The structures appear in SMILES notation. Counter-ions that a name gives are not always drawn. Like-named read-outs stand apart in the source and are kept apart here. A value given as a limit tells only on which side of the number the result lay.

Common to all, as to type: biochemical
In assay [1] the target is T1, Human MAO-B (Homo sapiens, UniProt P27338).
T1 sequence (P27338 1-520): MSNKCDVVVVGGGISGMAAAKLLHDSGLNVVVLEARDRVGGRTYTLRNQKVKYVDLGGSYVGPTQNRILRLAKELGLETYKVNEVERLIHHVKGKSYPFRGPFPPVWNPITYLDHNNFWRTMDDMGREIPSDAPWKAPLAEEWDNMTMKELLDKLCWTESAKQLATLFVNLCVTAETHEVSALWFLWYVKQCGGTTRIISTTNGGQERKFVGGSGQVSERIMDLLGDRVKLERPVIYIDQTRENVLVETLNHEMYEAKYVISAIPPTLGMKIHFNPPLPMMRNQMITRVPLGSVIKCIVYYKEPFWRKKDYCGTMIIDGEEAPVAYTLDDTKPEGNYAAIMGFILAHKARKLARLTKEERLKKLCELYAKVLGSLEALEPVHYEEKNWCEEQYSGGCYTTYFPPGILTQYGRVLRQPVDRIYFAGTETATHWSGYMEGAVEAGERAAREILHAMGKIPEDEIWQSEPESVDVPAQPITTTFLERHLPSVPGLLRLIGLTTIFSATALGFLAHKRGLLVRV
Put plainly: MAO-B inhibition (Amplex Red continuous fluorescence assay). How it is done:
(§1) VAP-1, DAO, MAO-A, MAO-B, and HRP activity and inhibition thereof was assessed by means of a continuous fluorescence assay. The Amplex Red Hydrogen Peroxide/Peroxidase Assay (ThermoFisher) was optimized for detecting amine oxidase (AO) activity. In an enzyme-coupled reaction, the H2O2 generated by AO reacts 1:1 with Amplex Red reagent to produce fluorescent product resorufin.
(§2) Assays were typically setup in black 384-well plates using automated liquid handling as follows. VAP-1/MAO assay buffer contains […] sodium phosphate, pH 7.4; DAO assay buffer contains 50 mM HEPES, pH 7.5; HRP assay buffer contains 100 mM CHES, 1 mM MgCl2, 50 mM NaCl, 0.05% BSA, pH 9.0. Inhibitors were serially diluted in DMSO and used to setup 2× mixtures with AO in the aforementioned buffer. After 30 min pre-incubation at 37° C. (VAP-1, HRP) or room temp (DAO, MAO), the reaction was initiated by adding a 2× mix of Amplex Red, HRP (coupling enzyme), and substrate (benzylamine, histamine, tyramine, benzylamine, H2O2, for VAP-1, DAO, MAO-A, MAO-B, and HR, respectively) in the same buffer. Reaction progress curve data were typically collected for 5 min using excitation/emission wavelengths of 510 nm/565 nm on FLIPR-Tetra plate readers (Molecular Devices Inc). Reaction rates were calculated from progress curve slopes typically over 60-150 sec. Dose response curves (rate vs. log inhibitor concentration) were typically fit to a 4-parameter logistic function to extract IC50 values.

In assay [2] the target is T2, Human VAP-1 (Homo sapiens, UniProt Q16853).
T2 sequence (Q16853 1-763): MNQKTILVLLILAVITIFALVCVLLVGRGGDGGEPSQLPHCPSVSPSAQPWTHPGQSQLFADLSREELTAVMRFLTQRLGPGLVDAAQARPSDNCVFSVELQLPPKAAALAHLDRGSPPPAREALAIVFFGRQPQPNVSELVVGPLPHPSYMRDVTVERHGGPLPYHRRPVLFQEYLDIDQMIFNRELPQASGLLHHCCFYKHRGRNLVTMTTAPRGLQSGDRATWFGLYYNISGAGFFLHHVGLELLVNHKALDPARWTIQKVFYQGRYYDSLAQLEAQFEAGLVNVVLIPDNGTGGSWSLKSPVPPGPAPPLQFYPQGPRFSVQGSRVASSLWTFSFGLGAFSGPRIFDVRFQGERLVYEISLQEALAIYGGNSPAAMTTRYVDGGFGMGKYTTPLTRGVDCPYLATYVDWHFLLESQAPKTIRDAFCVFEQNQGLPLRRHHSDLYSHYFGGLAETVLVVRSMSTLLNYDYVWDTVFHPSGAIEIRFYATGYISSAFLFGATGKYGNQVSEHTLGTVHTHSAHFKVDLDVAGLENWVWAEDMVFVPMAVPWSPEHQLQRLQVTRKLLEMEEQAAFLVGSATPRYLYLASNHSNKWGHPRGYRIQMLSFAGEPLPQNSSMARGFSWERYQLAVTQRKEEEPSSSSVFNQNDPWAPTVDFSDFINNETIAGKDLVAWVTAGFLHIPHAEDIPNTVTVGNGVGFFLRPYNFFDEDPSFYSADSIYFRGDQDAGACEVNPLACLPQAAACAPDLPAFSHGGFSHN
Nature of the assay: VAP-1 inhibition assay (Amplex Red continuous fluorescence assay). The procedure: as §1, §2

Assay [3] addresses T3, Human MAO-A (Homo sapiens, UniProt P21397).
T3 sequence (P21397 1-527): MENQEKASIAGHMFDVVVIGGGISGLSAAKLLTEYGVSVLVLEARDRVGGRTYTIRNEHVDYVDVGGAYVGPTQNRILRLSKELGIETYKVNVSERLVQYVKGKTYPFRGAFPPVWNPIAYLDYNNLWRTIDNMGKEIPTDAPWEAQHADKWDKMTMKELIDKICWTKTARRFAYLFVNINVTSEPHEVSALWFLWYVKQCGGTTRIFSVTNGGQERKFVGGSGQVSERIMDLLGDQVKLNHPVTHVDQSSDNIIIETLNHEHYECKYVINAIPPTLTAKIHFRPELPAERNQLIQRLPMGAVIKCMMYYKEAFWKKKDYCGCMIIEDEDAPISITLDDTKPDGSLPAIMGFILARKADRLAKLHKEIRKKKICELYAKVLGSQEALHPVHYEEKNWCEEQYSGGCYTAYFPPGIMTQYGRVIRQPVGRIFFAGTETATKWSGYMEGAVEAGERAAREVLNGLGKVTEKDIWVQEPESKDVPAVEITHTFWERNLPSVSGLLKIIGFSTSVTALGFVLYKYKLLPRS
Put plainly: MAO-A inhibition (Amplex Red continuous fluorescence assay). The procedure:
as §1, §2

Assay [4] concerns the target T4, Human DAO (Homo sapiens, UniProt P19801).
T4 sequence (P19801 20-751): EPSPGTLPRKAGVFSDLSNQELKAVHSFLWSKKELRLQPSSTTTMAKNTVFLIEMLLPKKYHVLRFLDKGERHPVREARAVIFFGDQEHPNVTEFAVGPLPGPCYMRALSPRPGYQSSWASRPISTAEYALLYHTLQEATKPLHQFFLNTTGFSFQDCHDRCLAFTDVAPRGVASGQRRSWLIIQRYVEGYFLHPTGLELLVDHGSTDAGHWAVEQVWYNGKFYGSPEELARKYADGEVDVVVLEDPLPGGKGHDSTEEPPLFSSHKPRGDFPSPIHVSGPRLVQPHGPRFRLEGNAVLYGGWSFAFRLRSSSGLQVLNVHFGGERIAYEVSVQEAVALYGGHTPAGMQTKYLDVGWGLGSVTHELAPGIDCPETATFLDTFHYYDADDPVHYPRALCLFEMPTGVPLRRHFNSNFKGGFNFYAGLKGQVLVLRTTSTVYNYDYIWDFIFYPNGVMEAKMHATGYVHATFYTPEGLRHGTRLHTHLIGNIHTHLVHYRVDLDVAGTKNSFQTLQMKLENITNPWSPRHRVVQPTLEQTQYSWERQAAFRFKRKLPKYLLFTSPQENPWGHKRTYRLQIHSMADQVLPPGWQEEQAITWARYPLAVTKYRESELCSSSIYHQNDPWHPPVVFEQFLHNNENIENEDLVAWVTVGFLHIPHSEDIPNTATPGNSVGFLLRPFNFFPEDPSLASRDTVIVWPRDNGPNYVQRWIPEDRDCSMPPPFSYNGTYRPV
Nature of the assay: DAO inhibition (Amplex Red continuous fluorescence assay). The procedure:
as §1, §2

The mark [5] stands for this setting: 30 min pre-incubation at room temp, substrate benzylamine, read-out: Human MAO-B IC50.
Setting [6] is: 30 min pre-incubation at 37° C., substrate benzylamine, read-out: Human VAP-1 IC50.
Setting [7] is: 30 min pre-incubation at room temp, substrate tyramine, read-out: Human MAO-A IC50.
The mark [8] stands for this setting: 30 min pre-incubation at room temp, substrate histamine, read-out: Human DAO IC50.

`CC(C)(C)NC(=O)c1cccc2c1ccn2CC(=CF)CN` [Compound 69, 1-(2-(aminomethyl)-3-fluoroalkyl)-N-(tert-butyl)-1H-indole-4-carboxamide]: the IC50 (in general, the concentration needed to halve the response being measured) in assay [1] (setting [5]) is less than 3 µM; in assay [2] (setting [6]) it was less than 3 µM; in assay [3] (setting [7]) it was greater than 10 µM; in assay [4] (setting [8]), greater than 10 µM.
As for `NC/C(=C\F)COc1ccc(-c2ncccn2)cc1` [Compound 37, (E)-3-fluoro-2-((4-(pyrimidin-2-yl)phenoxy)methyl)prop-2-en-1-amine hydrochloride], the half-maximal inhibitory concentration (IC50) in assay [1] (setting [5]) was less than 3 µM; in assay [2] (setting [6]), less than 3 µM; in assay [3] (setting [7]), 3 to 10 µM; in assay [4] (setting [8]), less than 3 µM.
Turning to `CC(C)(C)NC(=O)c1ccc2c(ccn2C/C(=C/F)CN)c1` [Compound 59, (E)-1-(2-(aminomethyl)-3-fluoroalkyl)-N-(tert-butyl)-1H-indole-5-carboxamide], the concentration for half-maximal inhibition (IC50) is less than 3 µM in assay [1] (setting [5]), less than 3 µM in assay [2] (setting [6]), greater than 10 µM in assay [3] (setting [7]) and greater than 10 µM in assay [4] (setting [8]).
Consider `NC/C(=C/F)COc1ccc(-c2nnn[nH]2)cc1` [Compound 52, (Z)-2-((4-(1H-tetrazol-5-yl)phenoxy)methyl)-3-fluoroprop-2-en-1-amine hydrochloride], for which the IC50 in assay [1] (setting [5]) was greater than 10 µM; in assay [2] (setting [6]), less than 3 µM; in assay [3] (setting [7]) it was greater than 10 µM; in assay [4] (setting [8]) it was less than 3 µM.
Take `NC/C(=C\F)CNC(=O)Oc1ccccc1` [Compound 47, phenyl (E)-(2-(aminomethyl)-3-fluoroalkyl)carbamate hydrochloride]: the IC50 in assay [1] is greater than 10 µM; in assay [2], less than 3 µM; in assay [3], less than 3 µM; in assay [4] it was greater than 10 µM.
With `NC/C(=C\F)COc1ccc(C2=NCCN2)cc1` [Compound 61, (E)-2-((4-(4,5-dihydro-1H-imidazol-2-yl)phenoxy)methyl)-3-fluoroprop-2-en-1-amine], the IC50 was greater than 10 µM in assay [1] (setting [5]), less than 3 µM in assay [2] (setting [6]), greater than 10 µM in assay [3] (setting [7]) and less than 3 µM in assay [4] (setting [8]).
Turning to `CC(C)(C)NC(=O)c1cn(CC(=CF)CN)c2ccccc12` [Compound 70, 1-(2-(aminomethyl)-3-fluoroalkyl)-N-(tert-butyl)-1H-indole-3-carboxamide], the half-maximal inhibitory concentration (IC50) in assay [1] (setting [5]) is greater than 10 µM; in assay [2] (setting [6]), less than 3 µM; in assay [3] (setting [7]), less than 3 µM; in assay [4] (setting [8]), greater than 10 µM.
On to `CCOC(=O)Nc1ccc(OC/C(=C/F)CN)cc1` [Compound 13], for which the IC50 in assay [1] (setting [5]) is less than 3 µM; in assay [2] (setting [6]), less than 3 µM; in assay [3] (setting [7]), less than 3 µM; in assay [4] (setting [8]) it was 3 to 10 µM.
For `NC/C(=C/F)COc1cccc2scnc12` [Compound 9, (Z)-2-((benzo[d]thiazol-4-yloxy)methyl)-3-fluoroprop-2-en-1-amine hydrochloride], the concentration for half-maximal inhibition (IC50) was less than 3 µM in assay [1] (setting [5]), less than 3 µM in assay [2] (setting [6]), 3 to 10 µM in assay [3] (setting [7]) and greater than 10 µM in assay [4] (setting [8]).
Consider `NC/C(=C\F)COc1ccc(-c2ccn[nH]2)cc1` [Compound 42, (E)-2-((4-(1H-pyrazol-5-yl)phenoxy)methyl)-3-fluoroprop-2-en-1-amine hydrochloride], for which the half-maximal inhibitory concentration (IC50) in assay [1] (setting [5]), in assay [2] (setting [6]), in assay [3] (setting [7]) and in assay [4] (setting [8]) was less than 3 µM in each case.
Consider `NC/C(=C/F)Cn1ncc(-c2ccc(O)cc2)n1` [Compound 58, (Z)-4-(2-(2-(aminomethyl)-3-fluoroalkyl)-2H-1,2,3-triazol-4-yl)phenol hydrochloride], for which the concentration for half-maximal inhibition (IC50) in assay [1] (setting [5]), in assay [2] (setting [6]), in assay [3] (setting [7]) and in assay [4] (setting [8]) was less than 3 µM in each case.
For the compound `NC/C(=C\F)COc1ccc(C(=O)NCCOCCOCCOCCOCCOCCOCCOCCOCCOCCOCCOCCNC(=O)CCCCC2SCC3NC(=O)NC32)cc1` (stereo not drawn) [Compound 78], the IC50 in assay [1] (setting [5]) is greater than 10 µM; in assay [2] (setting [6]), less than 3 µM; in assay [3] (setting [7]) it was greater than 10 µM; in assay [4] (setting [8]), less than 3 µM.
Take `NC/C(=C\F)COc1ccc(-c2ncc[nH]2)cc1` [Compound 4, (E)-2-((4-(1H-imidazol-2-yl)phenoxy)methyl)-3-fluoroprop-2-en-1-amine]: the IC50 is greater than 10 µM in assay [1] (setting [5]), less than 3 µM in assay [2] (setting [6]), greater than 10 µM in assay [3] (setting [7]) and less than 3 µM in assay [4] (setting [8]).
`NC/C(=C\F)COc1ccc(-c2nc3ccccc3[nH]2)cc1` [Compound 10, (E)-2-((4-(1H-benzo[d]imidazol-2-yl)phenoxy)methyl)-3-fluoroprop-2-en-1-amine hydrochloride]: the IC50 in assay [1] (setting [5]) is less than 3 µM; in assay [2] (setting [6]) it was less than 3 µM; in assay [3] (setting [7]) it was greater than 10 µM; in assay [4] (setting [8]) it was less than 3 µM.
As for `CO[C@H]1CCN(c2ncc(OC/C(=C/F)CN)cn2)C1` [Compound 81], the IC50 in assay [1] (setting [5]) is greater than 10 µM; in assay [2] (setting [6]), less than 3 µM; in assay [3] (setting [7]), greater than 10 µM; in assay [4] (setting [8]), less than 3 µM.
